pIC50: −log10 of the molar value. Values belong to the compound of their own block, whether it stands above or below them.
Experiments:
MLK-3 = MLK-3 (Homo sapiens, UniProt Q16584); test: Biochemical assay for the inhibition of kinase activity for MLK-3 (33P-ATP, HOTSPOT filter binding); details: activated MLK-3 20 nM, ATP 50 μM, myelin basic protein 20 μM, 20 minutes room temperature
In short: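 Activated MLK-3 (20 nM) with myelin basic protein (20 μM) in 20 mM Hepes pH 7.5, MgCl2, EGTA, Brij35, BSA, Na3VO4, DTT, 1% DMSO. Started with 33P-ATP at 50 μM ATP, 20 min at room temperature; % activity by HOTSPOT filter binding.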

diverse set of kinases [1] = target: T1, diverse set of kinases (Homo sapiens, UniProt O14920); test: Protein kinase selectivity: IC50 against a diverse set of kinases, compared with URMC-099; assay type: biochemical; details: kinase IKKb
T1 construct: IC50 IKKb; other: kinase IKKb
T1 sequence (O14920 1-756): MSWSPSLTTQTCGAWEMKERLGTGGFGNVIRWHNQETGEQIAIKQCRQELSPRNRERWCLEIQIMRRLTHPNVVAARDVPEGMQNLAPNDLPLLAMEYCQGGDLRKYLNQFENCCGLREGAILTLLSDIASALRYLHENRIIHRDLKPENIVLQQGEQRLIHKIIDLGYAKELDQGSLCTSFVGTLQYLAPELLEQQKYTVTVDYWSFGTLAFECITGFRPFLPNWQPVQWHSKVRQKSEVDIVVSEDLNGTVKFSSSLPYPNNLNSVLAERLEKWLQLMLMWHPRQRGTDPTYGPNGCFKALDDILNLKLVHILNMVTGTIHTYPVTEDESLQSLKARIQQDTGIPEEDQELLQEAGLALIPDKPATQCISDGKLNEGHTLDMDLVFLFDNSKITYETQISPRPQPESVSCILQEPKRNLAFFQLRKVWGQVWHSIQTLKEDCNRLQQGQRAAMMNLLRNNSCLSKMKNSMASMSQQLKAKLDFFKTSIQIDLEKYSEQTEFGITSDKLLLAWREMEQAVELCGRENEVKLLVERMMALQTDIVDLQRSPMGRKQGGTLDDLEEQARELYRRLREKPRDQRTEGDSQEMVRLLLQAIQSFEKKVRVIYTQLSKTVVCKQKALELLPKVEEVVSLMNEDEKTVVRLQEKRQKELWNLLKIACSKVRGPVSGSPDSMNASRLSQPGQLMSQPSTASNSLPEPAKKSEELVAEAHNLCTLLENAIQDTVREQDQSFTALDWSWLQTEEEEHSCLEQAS
Excerpt: (§1) Protein Kinase Selectivity: MLK-3 inhibitors previously reported in the literature are somewhat promiscuous and inhibit a large number of serine and threonine protein kinases. Compounds of the present invention that show potent inhibition on MLK-3 are very specific for MLK family kinases. […] Journal of Medicinal Chemistry, 2013.

diverse set of kinases [2] = target: T2, diverse set of kinases (Homo sapiens, UniProt O15111); test: as above; assay type: biochemical; details: kinase IKKa
T2 construct: IC50 IKKa; other: kinase IKKa
T2 sequence (O15111 1-745): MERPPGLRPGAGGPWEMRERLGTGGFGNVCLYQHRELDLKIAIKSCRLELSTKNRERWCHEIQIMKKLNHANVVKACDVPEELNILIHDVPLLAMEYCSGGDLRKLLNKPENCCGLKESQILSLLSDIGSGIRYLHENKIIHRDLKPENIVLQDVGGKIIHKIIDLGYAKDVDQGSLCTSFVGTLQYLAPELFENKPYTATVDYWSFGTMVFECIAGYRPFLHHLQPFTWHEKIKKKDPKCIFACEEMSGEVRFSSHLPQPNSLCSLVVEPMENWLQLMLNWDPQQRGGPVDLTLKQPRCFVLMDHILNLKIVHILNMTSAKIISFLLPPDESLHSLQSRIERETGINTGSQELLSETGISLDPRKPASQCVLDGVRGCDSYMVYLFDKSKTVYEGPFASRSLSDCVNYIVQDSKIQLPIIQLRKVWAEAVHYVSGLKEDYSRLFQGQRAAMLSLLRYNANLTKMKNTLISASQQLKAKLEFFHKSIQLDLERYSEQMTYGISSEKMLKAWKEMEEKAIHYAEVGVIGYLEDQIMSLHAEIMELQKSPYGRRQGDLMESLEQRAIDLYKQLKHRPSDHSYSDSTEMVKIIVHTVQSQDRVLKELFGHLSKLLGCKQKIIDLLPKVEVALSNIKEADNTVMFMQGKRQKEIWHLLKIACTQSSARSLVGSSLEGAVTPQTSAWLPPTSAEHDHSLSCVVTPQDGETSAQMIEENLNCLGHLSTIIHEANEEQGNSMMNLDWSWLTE
Excerpt: as §1

diverse set of kinases [3] = target: diverse set of kinases (Homo sapiens, UniProt P00519, T315I); test: as above; assay type: biochemical; details: kinase ABL1; read-out: IC50 ABL1(T31SI)
Excerpt: as §1

diverse set of kinases [4] = target: T3, diverse set of kinases (Homo sapiens, UniProt P06213); test: as above; assay type: biochemical; details: kinase IR
T3 construct: IC50 IR; other: kinase IR
T3 sequence (P06213 whole entry): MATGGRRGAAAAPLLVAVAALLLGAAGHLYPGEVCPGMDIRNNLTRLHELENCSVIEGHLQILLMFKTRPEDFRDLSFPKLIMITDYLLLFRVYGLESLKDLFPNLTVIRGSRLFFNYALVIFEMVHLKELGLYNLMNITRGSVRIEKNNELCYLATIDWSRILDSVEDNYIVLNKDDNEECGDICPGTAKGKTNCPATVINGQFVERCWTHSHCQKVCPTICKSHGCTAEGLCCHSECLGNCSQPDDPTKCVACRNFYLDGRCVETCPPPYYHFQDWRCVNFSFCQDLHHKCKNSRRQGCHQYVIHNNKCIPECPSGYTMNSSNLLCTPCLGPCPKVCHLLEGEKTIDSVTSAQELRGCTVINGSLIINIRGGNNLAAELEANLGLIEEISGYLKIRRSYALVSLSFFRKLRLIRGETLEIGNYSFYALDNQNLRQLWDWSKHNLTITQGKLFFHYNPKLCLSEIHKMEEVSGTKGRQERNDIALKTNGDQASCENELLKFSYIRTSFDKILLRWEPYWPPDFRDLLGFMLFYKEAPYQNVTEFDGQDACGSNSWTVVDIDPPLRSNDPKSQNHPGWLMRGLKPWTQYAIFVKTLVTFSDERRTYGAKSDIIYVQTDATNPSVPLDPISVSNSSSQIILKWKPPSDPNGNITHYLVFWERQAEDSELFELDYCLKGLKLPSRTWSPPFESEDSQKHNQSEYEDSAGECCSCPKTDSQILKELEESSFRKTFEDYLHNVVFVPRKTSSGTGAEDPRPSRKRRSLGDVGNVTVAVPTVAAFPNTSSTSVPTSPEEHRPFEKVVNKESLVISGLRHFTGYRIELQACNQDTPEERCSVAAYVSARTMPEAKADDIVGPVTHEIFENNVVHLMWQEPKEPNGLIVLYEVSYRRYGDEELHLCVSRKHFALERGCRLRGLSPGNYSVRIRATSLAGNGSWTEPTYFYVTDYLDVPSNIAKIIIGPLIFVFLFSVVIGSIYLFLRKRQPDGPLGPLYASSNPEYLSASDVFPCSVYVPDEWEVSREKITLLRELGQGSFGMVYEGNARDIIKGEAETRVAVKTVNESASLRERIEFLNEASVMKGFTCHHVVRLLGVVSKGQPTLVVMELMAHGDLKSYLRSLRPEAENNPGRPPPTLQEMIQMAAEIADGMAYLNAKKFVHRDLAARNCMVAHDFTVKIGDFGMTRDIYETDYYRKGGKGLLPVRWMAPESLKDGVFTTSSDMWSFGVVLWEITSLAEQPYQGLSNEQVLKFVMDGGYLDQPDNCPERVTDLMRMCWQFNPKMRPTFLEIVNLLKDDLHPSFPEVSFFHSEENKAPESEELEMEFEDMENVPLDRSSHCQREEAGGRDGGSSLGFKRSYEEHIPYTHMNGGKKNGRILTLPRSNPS
Excerpt: as §1

diverse set of kinases [5] = target: T4, diverse set of kinases (Homo sapiens, UniProt P24941); test: as above; assay type: biochemical; details: kinase CDK2
T4 construct: IC50 CDK2; other: kinase CDK2
Excerpt: as §1

[6] = Blood brain barrier penetration: standard murine pharmacokinetic model, plasma and brain concentrations; assay type: in vivo; details: mouse; brain concentration 3 hrs after single IV injection 10 mg/kg, CL57 BL/6 mice; read-out: Cbrain 3 hrs
Excerpt: Compounds disclosed herein may be evaluated in pharmacokinetic assays and models to determine absorption, distribution, metabolism, and excretion parameters. The choice and tailoring of in vitro and ex vivo assays and in vivo models will vary according to the route of administration/formulation, indication under study, properties of test compounds, etc., as well as according to such factors as costs, availability of technology and resources, etc. Such parameters are well known in the fields of pharmacology and drug development. It is within the capacity of one skilled in the art to design and carry out, such work, or to outsource it to a capable third party.
Several compounds disclosed herein were evaluated in a standard murine pharmacokinetic model. […] For ease of analysis compounds were dissolved in 5% DMSO, 40% PEG400, and […] to yield a nominal concentration of 2 mg/mL for intravenous administration. Compounds were administered via a single intravenous (IV) injection in CL57 BL/6 mice at 10 mg/kg in DMSO/PEG400/Saline solution. Three mice in each group were used for blood and brain collection at each time point. Blood samples (300 μL) were collected via the retro-orbital vein predose and at 30, 60 and 180 minutes postdose. Blood samples were placed into tubes containing sodium heparin and centrifuged under refrigerated conditions at 8000 rpm for 6 minutes to separate plasma from the samples. The brain of each animal was collected after the final blood collection. The whole tissue was harvested, excised and rinsed by saline, dried by filter paper, and then placed into one tube per tissue per animal. All samples were stored at −20° C. until bioanalysis. Compound concentrations in plasma and brain homogenate were determined using a high performance liquid chromatography/mass spectrometry (HPLC/MS/MS) methods.

Sequence of MLK-3 (Q16584 whole entry): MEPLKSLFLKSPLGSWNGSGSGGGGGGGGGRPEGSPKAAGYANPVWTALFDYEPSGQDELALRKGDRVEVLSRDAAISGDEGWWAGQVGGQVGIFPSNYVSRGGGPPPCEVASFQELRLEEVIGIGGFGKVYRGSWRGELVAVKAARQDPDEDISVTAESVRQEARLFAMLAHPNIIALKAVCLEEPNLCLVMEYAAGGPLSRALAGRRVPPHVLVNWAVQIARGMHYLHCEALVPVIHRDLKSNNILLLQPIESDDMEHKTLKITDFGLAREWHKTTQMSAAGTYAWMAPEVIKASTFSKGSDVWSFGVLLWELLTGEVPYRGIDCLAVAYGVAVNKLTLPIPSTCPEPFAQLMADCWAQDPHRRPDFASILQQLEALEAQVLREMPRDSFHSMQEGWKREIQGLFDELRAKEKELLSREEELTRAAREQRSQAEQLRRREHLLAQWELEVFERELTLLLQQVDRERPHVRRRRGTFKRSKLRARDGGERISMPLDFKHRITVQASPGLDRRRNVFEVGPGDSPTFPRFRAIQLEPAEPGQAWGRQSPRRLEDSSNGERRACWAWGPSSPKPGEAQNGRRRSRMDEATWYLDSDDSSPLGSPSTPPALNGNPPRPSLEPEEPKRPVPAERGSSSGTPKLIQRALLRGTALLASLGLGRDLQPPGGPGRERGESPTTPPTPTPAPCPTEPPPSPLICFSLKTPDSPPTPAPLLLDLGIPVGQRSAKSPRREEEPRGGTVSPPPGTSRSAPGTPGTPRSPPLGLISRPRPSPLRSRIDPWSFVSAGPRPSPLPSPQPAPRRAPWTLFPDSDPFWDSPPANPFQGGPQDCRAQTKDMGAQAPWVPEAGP

Compound: O[C@H]1CC[C@H](Nc2ccc3ncc(-c4cc5ccccc5s4)n3n2)CC1 [Compound 105, trans-4-(3-(benzo[b]thiophen-2-yl)imidazo[1,2-b]pyridazin-6-ylamino)cyclohexanol]
- pIC50 (MLK-3): 6.30 to 7.00
- pIC50 (diverse set of kinases [1]): < 5.00
- pIC50 (diverse set of kinases [2]): < 5.00
- pIC50 (diverse set of kinases [3]): < 5.00
- pIC50 (diverse set of kinases [4]): < 5.00
- pIC50 (diverse set of kinases [5]): 5.99

Compound: COc1cccc2cc(-c3cnc4ccc(N[C@H]5CC[C@H](O)CC5)nn34)sc12 [Compound 170, trans-4-(3-(7-methoxybenzo[b]thiophen-2-yl)imidazo[1,2-b]pyridazin-6-ylamino)cyclohexanol]
- pIC50 (MLK-3): > 7.00
- pIC50 (diverse set of kinases [1]): < 5.00
- pIC50 (diverse set of kinases [2]): < 5.00
- pIC50 (diverse set of kinases [3]): < 5.00
- pIC50 (diverse set of kinases [4]): < 5.00
- pIC50 (diverse set of kinases [5]): < 5.00

Compound: COc1cc2cc(-c3cnc4ccc(N(C)[C@H]5CC[C@H](OC)CC5)nn34)sc2cc1OC [Compound 175, 3-(5,6-dimethoxybenzo[b]thiophen-2-yl)-N-(trans-4-methoxycyclohexyl)-N-methylimidazo[1,2-b]pyridazin-6-amine]
- pIC50 (MLK-3): > 7.00
- concentration at 3 h [6]: 1880 ng/g

Compound: COc1cc2cc(-c3cnc4ccc(N[C@H]5CC[C@H](O)CC5)nn34)sc2cc1OC [Compound 169, trans-4-(3-(5,6-dimethoxybenzo[b]thiophen-2-yl)imidazo[1,2-b]pyridazin-6-ylamino)cyclohexanol]
- pIC50 (MLK-3): > 7.00
- pIC50 (diverse set of kinases [1]): < 5.00
- pIC50 (diverse set of kinases [2]): < 5.00
- pIC50 (diverse set of kinases [3]): < 5.00
- pIC50 (diverse set of kinases [4]): < 5.00
- pIC50 (diverse set of kinases [5]): 5.08

Compound: COc1ccc2[nH]c(-c3cnc4ccc(N[C@H]5CC[C@H](O)CC5)nn34)cc2c1 [Compound 85, trans-4-(3-(5-methoxy-1H-indol-2-yl)imidazo[1,2-b]pyridazin-6-ylamino)cyclohexanol]
- pIC50 (MLK-3): > 7.00

Compound: Cc1cccc2cc(-c3cnc4ccc(N[C@H]5CC[C@H](O)CC5)nn34)sc12 [Compound 203, trans-4-(3-(7-methylbenzo[b]thiophen-2-yl)imidazo[1,2-b]pyridazin-6-ylamino)cyclohexanol]
- pIC50 (MLK-3): 6.30 to 7.00

Compound: COc1cc(Nc2ccc3ncc(-c4cc5cccc(OC(F)(F)F)c5s4)n3n2)ccc1OC(F)F [Compound 189, N-(4-(difluoromethoxy)-3-methoxyphenyl)-3-(7-(trifluoromethoxy)benzo[b]thiophen-2-yl)imidazo[1,2-b]pyridazin-6-amine]
- pIC50 (MLK-3): > 5.30

Compound: OCCNc1ccc2ncc(-c3cc4ccccc4s3)n2n1 [Compound 108, 2-(3-(benzo[b]thiophen-2-yl)imidazo[1,2-b]pyridazin-6-ylamino)ethanol]
- pIC50 (MLK-3): 6.00 to 6.30

Compound: COc1ccc(Nc2ccc3ncc(-c4cc5cc(OC)c(OC)cc5s4)n3n2)cc1OC [Compound 67, 3-(5,6-dimethoxybenzo[b]thiophen-2-yl)-N-(3,4-dimethoxyphenyl)imidazo[1,2-b]pyridazin-6-amine]
- pIC50 (MLK-3): > 7.00
- concentration at 3 h [6]: 566 ng/g
- pIC50 (diverse set of kinases [1]): < 5.00
- pIC50 (diverse set of kinases [2]): < 5.00
- pIC50 (diverse set of kinases [3]): < 5.00
- pIC50 (diverse set of kinases [4]): < 5.00
- pIC50 (diverse set of kinases [5]): < 5.00

Compound: OCCCCCNc1ccc2ncc(-c3cc4ccccc4s3)n2n1 [Compound 135, 5-(3-(benzo[b]thiophen-2-yl)imidazo[1,2-b]pyridazin-6-ylamino)pentan-1-ol]
- pIC50 (MLK-3): 6.30 to 7.00

Compound: Oc1cccc2cc(-c3cnc4ccc(N[C@H]5CC[C@H](O)CC5)nn34)sc12 [Compound 77]
- pIC50 (MLK-3): > 7.00

Compound: COc1ccc(N(C)c2ccc3ncc(-c4cc5cncc(OC)c5s4)n3n2)cc1OC [Compound 212, N-(3,4-dimethoxyphenyl)-3-(7-methoxythieno[3,2-c]pyridin-2-yl)-N-methylimidazo[1,2-b]pyridazin-6-amine]
- pIC50 (MLK-3): > 5.30

Second part, the compound after the results:

- pIC50 (MLK-3): 6.30 to 7.00
- concentration at 3 h [6]: 1280 ng/g
- pIC50 (diverse set of kinases [1]): < 5.00
- pIC50 (diverse set of kinases [2]): < 5.00
- pIC50 (diverse set of kinases [3]): < 5.00
- pIC50 (diverse set of kinases [4]): < 5.00
- pIC50 (diverse set of kinases [5]): 4.71
Compound: COc1ccc(Nc2ccc3ncc(-c4cc5ccccc5s4)n3n2)cc1OC [Compound 12, 3-(benzo[b]thiophen-2-yl)-N-(3,4-dimethoxyphenyl)imidazo[1,2-b]pyridazin-6-amine]

- pIC50 (MLK-3): > 5.30
Compound: COc1cccc(Nc2ccc3ncc(-c4ccc5[nH]ccc5c4)n3n2)c1 [Compound 54, 3-(1H-indol-5-yl)-N-(3-methoxyphenyl)imidazo[1,2-b]pyridazin-6-amine]

- pIC50 (MLK-3): 6.30 to 7.00
Compound: COc1ccc(Nc2ccc3ncc(-c4cc5cccc(OC(C)C)c5s4)n3n2)cc1OC [Compound 80, 3-(7-isopropoxybenzo[b]thiophen-2-yl)-N-(3,4-dimethoxyphenyl)imidazo[1,2-b]pyridazin-6-amine]

- pIC50 (MLK-3): 6.00 to 6.30
Compound: CCCOc1cccc2cc(-c3cnc4ccc(Nc5ccc(OC)c(OC)c5)nn34)sc12 [Compound 81, N-(3,4-dimethoxyphenyl)-3-(7-propoxybenzo[b]thiophen-2-yl)imidazo[1,2-b]pyridazin-6-amine]

- pIC50 (MLK-3): 6.00 to 6.30
Compound: COc1ccc2cc(-c3cnc4ccc(N[C@H]5CC[C@H](O)CC5)nn34)ccc2c1 [Compound 163, trans-4-(3-(2-methoxynaphthalen-6-yl)imidazo[1,2-b]pyridazin-6-ylamino)cyclohexanol]

- pIC50 (MLK-3): > 7.00
Compound: COc1cc2cc(-c3cnc4ccc(Nc5cccc(C(=O)O)c5)nn34)sc2cc1OC [Compound 71, 3-(3-(5,6-dimethoxybenzo[b]thiophen-2-yl)imidazo[1,2-b]pyridazin-6-ylamino)benzoic acid]

— patent US9370515B2, “Mixed lineage kinase inhibitors and method of treatments” (CALIFIA BIO, INC., priority 2013, dated 2016)
